Experimental data reported in ChEMBL document CHEMBL1128972, “Synthesis of pyridinone ribonucleoside 3-O-phosphoramidites and their incorporation into oligoribonucleotides” (Bioorg Med Chem Lett, 1996).

Assay: Cleavage rate was reported
Type: ADME

K obs [min⁻¹] | SMILES
0.095 | O=c1ccn(C2O[C@H](CO)[C@@H](O)[C@H]2O)cc1 (stereo partly drawn)
2.01 | O=c1ccccn1C1O[C@H](CO)[C@@H](O)[C@H]1O (stereo partly drawn)
1.17 | O=c1ccn([C@@H]2O[C@H](CO)[C@@H](O)[C@H]2O)c(=O)[nH]1 [URIDINE]
